Measurements published in US20250179073A1, “TRICYCLIC HETEROCYCLE COMPOUNDS AS IAP ANTAGONISTS” (Ascentage Pharma (Suzhou) Co., Ltd., priority 2022, published 2025).

Key:
[1] = test system: MDA-MB-231 cells; test: Cell proliferation assay (CellTiter-Glo), MDA-MB-231; type: cell-based; settings: Homo sapiens, MDA-MB-231, 72 h, 72 h treatment, Celltiter-Glo luminescence
Summary of the method: (§1)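 MDA-MB-231 (RPMI-1640/10% FBS) and EVSA-T (MEM/10% FBS) cells, 10000 cells/well, exposed 72 h to compound at […]. Viability read by CellTiter-Glo luminescence after 15 min at room temperature. IC50 from control-normalised curve fitting.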

[2] = test system: EVSA-T cells; test: Cell proliferation assay (CellTiter-Glo), EVSA-T; type: cell-based; settings: Homo sapiens, EVSA-T, 72 h, 72 h treatment, Celltiter-Glo luminescence
Summary of the method: as §1

IC50 [1] [nM]	SMILES	IC50 [2] [nM]
21	C[C@@H]1CN(CC(=O)N2CC(C)(C)c3c2cc(Cc2ccc(F)cc2)c2nc(C4CC4)nn32)[C@@H](CN2CCOC[C@H]2C)CN1 [Compound 165, 1-(2-cyclopropyl-4-(4-fluorobenzyl)-8,8-dimethyl-7,8-dihydro-6H-pyrrolo[2,3-e][1,2,4]triazolo[1,5-a]pyridin-6-yl)-2-((2R,5R)-5-methyl-2-(((R)-3-methylmorpholino)methyl)piperazin-1-yl)ethan-1-one]	4
120	C[C@@H]1CN(CC(=O)N2CC(C)(C)c3c2cc(Cc2ccc(F)cc2)c2nc(C(F)(F)F)cn32)[C@@H](CN2CCOC[C@H]2CF)CN1 [Compound 167, 1-(4-(4-fluorobenzyl)-8,8-dimethyl-2-(trifluoromethyl)-7,8-dihydro-6H-imidazo[1,2-a]pyrrolo[2,3-e]pyridin-6-yl)-2-((2R,5R)-2-((3-(fluoromethyl)morpholino)methyl)-5-methylpiperazin-1-yl)ethan-1-one]	16
180	C[C@@H]1CN(CC(=O)N2CC(C)(C)c3c2cc(Cc2ccc(F)cc2)c2nc(C(F)(F)F)cn32)[C@@H](CN2CCN(CC(F)(F)F)C[C@H]2C)CN1 [Compound 179, 1-(4-(4-fluorobenzyl)-8,8-dimethyl-2-(trifluoromethyl)-7,8-dihydro-6H-imidazo[1,2-a]pyrrolo[2,3-e]pyridin-6-yl)-2-((2R,5R)-5-methyl-2-(((R)-2-methyl-4-(2,2,2-trifluoroethyl)piperazin-1-yl)methyl)piperazin-1-yl)ethan-1-one]	15
615	C[C@@H]1CN(CC(=O)N2CC3(CCOCC3)c3c2cc(Cc2ccc(F)cc2)c2ncnn32)[C@@H](CN2CCOC[C@H]2C)CN1 [Compound 180, 1-(4′-(4-fluorobenzyl)-2,3,5,6-tetrahydrospiro[pyran-4,8′-pyrrolo[2,3-e][1,2,4]triazolo[1,5-a]pyridin]-6′(7′H)-yl)-2-((2R,5R)-5-methyl-2-(((R)-3-methylmorpholino)methyl)piperazin-1-yl)ethan-1-one]	56
97	C[C@@H]1CN(CC(=O)N2CC(C)(C)c3c2cc(Cc2ccc(F)cc2)c2nc(C(F)(F)F)cn32)[C@@H](CN2CCN(C3COC3)C[C@H]2C)CN1 [Compound 181, 1-(4-(4-fluorobenzyl)-8,8-dimethyl-2-(trifluoromethyl)-7,8-dihydro-6H-imidazo[1,2-a]pyrrolo[2,3-e]pyridin-6-yl)-2-((2R,5R)-5-methyl-2-(((R)-2-methyl-4-(oxetan-3-yl)piperazin-1-yl)methyl)piperazin-1-yl)ethan-1-one]	15
17	C[C@@H]1CN(CC(=O)N2CC(C)(C)c3c2cc(Cc2ccc(F)cc2)c2ncnn32)[C@@H](CN2CCN(CC#N)C[C@H]2C)CN1 [Compound 182, 2-((R)-4-(((2R,5R)-1-(2-(4-(4-fluorobenzyl)-8,8-dimethyl-7,8-dihydro-6H-pyrrolo[2,3-e][1,2,4]triazolo[1,5-a]pyridin-6-yl)-2-oxoethyl)-5-methylpiperazin-2-yl)methyl)-3-methylpiperazin-1-yl)acetonitrile]	2
17	C[C@@H]1CN(CC(=O)N2CC(C)(C)c3c2cc(Cc2ccc(F)cc2)c2nc(-c4cncnc4)nn32)[C@@H](CN2CCOC[C@H]2C)CN1 [Compound 184, 1-(4-(4-fluorobenzyl)-8,8-dimethyl-2-(pyrimidin-5-yl)-7,8-dihydro-6H-pyrrolo[2,3-e][1,2,4]triazolo[1,5-a]pyridin-6-yl)-2-((2R,5R)-5-methyl-2-(((R)-3-methylmorpholino)methyl)piperazin-1-yl)ethan-1-one]	6
23	C[C@@H]1CN(CC(=O)N2CC(C)(C)c3c2cc(Cc2ccc(F)cc2)c2nn(CC#N)c(=O)n32)[C@@H](CN2CCOC[C@H]2C)CN1 [Compound 185, 2-(4-(4-fluorobenzyl)-8,8-dimethyl-6-(2-((2R,5R)-5-methyl-2-(((R)-3-methylmorpholino)methyl)piperazin-1-yl)acetyl)-1-oxo-7,8-dihydro-1H-pyrrolo[2,3-e][1,2,4]triazolo[4,3-a]pyridin-2(6H)-yl)acetonitrile]	7
8	C[C@@H]1CN(CC(=O)N2CC(C)(C)c3c2cc(Cc2ccc(F)cc2)c2nc(NC4COC4)nn32)[C@@H](CN2CCOC[C@H]2C)CN1 [Compound 187, 1-(4-(4-fluorobenzyl)-8,8-dimethyl-2-(oxetan-3-ylamino)-7,8-dihydro-6H-pyrrolo[2,3-e][1,2,4]triazolo[1,5-a]pyridin-6-yl)-2-((2R,5R)-5-methyl-2-(((R)-3-methylmorpholino)methyl)piperazin-1-yl)ethan-1-one]	6
14	C[C@@H]1CN(CC(=O)N2CC(C)(C)c3c2cc(Cc2ccc(F)cc2)c2nn(C4CCOCC4)c(=O)n32)[C@@H](CN2CCOC[C@H]2C)CN1 [Compound 190, 4-(4-fluorobenzyl)-8,8-dimethyl-6-(2-((2R,5R)-5-methyl-2-(((R)-3-methylmorpholino)methyl)piperazin-1-yl)acetyl)-2-(tetrahydro-2H-pyran-4-yl)-2,6,7,8-tetrahydro-1H-pyrrolo[2,3-e][1,2,4]triazolo[4,3-a]pyridin-1-one]	3
38	C[C@@H]1CN(CC(=O)N2CC(C)(C)c3c2cc(Cc2ccc(F)cc2)c2nn(Cc4ccccn4)c(=O)n32)[C@@H](CN2CCOC[C@H]2C)CN1 [Compound 192, 4-(4-fluorobenzyl)-8,8-dimethyl-6-(2-((2R,5R)-5-methyl-2-(((R)-3-methylmorpholino)methyl)piperazin-1-yl)acetyl)-2-(pyridin-2-ylmethyl)-2,6,7,8-tetrahydro-1H-pyrrolo[2,3-e][1,2,4]triazolo[4,3-a]pyridin-1-one]	7
50	C[C@@H]1CN(CC(=O)N2CC(C)(C)c3c2cc(Cc2ccc(F)cc2)c2nn(Cc4cnccn4)c(=O)n32)[C@@H](CN2CCOC[C@H]2C)CN1 [Compound 193, 4-(4-fluorobenzyl)-8,8-dimethyl-6-(2-((2R,5R)-5-methyl-2-(((R)-3-methylmorpholino)methyl)piperazin-1-yl)acetyl)-2-(pyrazin-2-ylmethyl)-2,6,7,8-tetrahydro-1H-pyrrolo[2,3-e][1,2,4]triazolo[4,3-a]pyridin-1-one]	6
43	C[C@@H]1CN(CC(=O)N2CC(C)(C)c3c2cc(Cc2ccc(F)cc2)c2nc(CC#N)nn32)[C@@H](CN2CCOC[C@H]2C)CN1 [Compound 196, 2-(4-(4-fluorobenzyl)-8,8-dimethyl-6-(2-((2R,5R)-5-methyl-2-(((R)-3-methylmorpholino)methyl)piperazin-1-yl)acetyl)-7,8-dihydro-6H-pyrrolo[2,3-e][1,2,4]triazolo[1,5-a]pyridin-2-yl)acetonitrile]	4
20	C[C@@H]1CN(CC(=O)N2CC(C)(C)c3c2cc(Cc2ccc(F)cc2)c2nc(N4CCS(=O)(=O)CC4)nn32)[C@@H](CN2CCOC[C@H]2C)CN1 [Compound 199, 1-(2-(1,1-dioxidothiomorpholino)-4-(4-fluorobenzyl)-8,8-dimethyl-7,8-dihydro-6H-pyrrolo[2,3-e][1,2,4]triazolo[1,5-a]pyridin-6-yl)-2-((2R,5R)-5-methyl-2-(((R)-3-methylmorpholino)methyl)piperazin-1-yl)ethan-1-one]	6
26	C[C@@H]1CN(CC(=O)N2CC(C)(C)c3c2cc(Cc2ccc(F)cc2)c2nn(CCO)c(=O)n32)[C@@H](CN2CCOC[C@H]2C)CN1 [Compound 201, 4-(4-fluorobenzyl)-2-(2-hydroxyethyl)-8,8-dimethyl-6-(2-((2R,5R)-5-methyl-2-(((R)-3-methylmorpholino)methyl)piperazin-1-yl)acetyl)-2,6,7,8-tetrahydro-1H-pyrrolo[2,3-e][1,2,4]triazolo[4,3-a]pyridin-1-one]	11
34	C[C@@H]1CN(CC(=O)N2CC(C)(C)c3c2cc(Cc2ccc(F)cc2)c2ncnn32)[C@@H](CN2CCOC3CC32)CN1 (stereo partly drawn) [Compound 202, 2-((2S,5R)-2-((2-oxa-5-azabicyclo[4.1.0]heptan-5-yl)methy 1)-5-methylpiperazin-1-yl)-1-(4-(4-fluorobenzyl)-8,8-dimethyl-7,8-dihydro-6H-pyrrolo[2,3-e][1,2,4]triazolo[1,5-a]pyridin-6-yl)ethan-1-one]	17
10	C[C@@H]1CN(CC(=O)N2CC(C)(C)c3c2cc(Cc2ccc(F)cc2)c2ncnn32)[C@@H](CN2CCN(C3COC3)C[C@H]2C)CN1 [Compound 203, 1-(4-(4-fluorobenzyl)-8,8-dimethyl-7,8-dihydro-6H-pyrrolo[2,3-e][1,2,4]triazolo[1,5-a]pyridin-6-yl)-2-((2R,5R)-5-methyl-2-(((R)-2-methyl-4-(oxetan-3-yl)piperazin-1-yl)methyl)piperazin-1-yl)ethan-1-one]	3
44	C[C@@H]1CN(CC(=O)N2CC(C)(C)c3c2cc(Cc2ccc(F)cc2)c2nc(N4CCOC4=O)nn32)[C@@H](CN2CCOC[C@H]2C)CN1 [Compound 204, 3-(4-(4-fluorobenzyl)-8,8-dimethyl-6-(2-((2R,5R)-5-methyl-2-(((R)-3-methylmorpholino)methyl)piperazin-1-yl)acetyl)-7,8-dihydro-6H-pyrrolo[2,3-e][1,2,4]triazolo[1,5-a]pyridin-2-yl)oxazolidin-2-one]	14

SMILES	IC50 [1] [nM]	IC50 [2] [nM]
C[C@@H]1CN(CC(=O)N2CC(C)(C)c3c2cc(Cc2ccc(F)cc2)c2nc(N4CC5CC(C4)O5)nn32)[C@@H](CN2CCOC[C@H]2C)CN1 [Compound 189, 1-(2-(6-oxa-3-azabicyclo[3.1.1]heptan-3-yl)-4-(4-fluorobenzyl)-8,8-dimethyl-7,8-dihydro-6H-pyrrolo[2,3-e][1,2,4]triazolo[1,5-a]pyridin-6-yl)-2-((2R,5R)-5-methyl-2-(((R)-3-methylmorpholino)methyl)piperazin-1-yl)ethan-1-one]	10	2
